{
  "source": "patent US20230143604A1",
  "about": "“QW DOSING OF GIP RECEPTOR AGONIST PEPTIDE COMPOUNDS AND USES THEREOF” (TAKEDA PHARMACEUTICAL COMPANY LIMITED, priority 2020, published 2023)",
  "key": {"[1]": {"tested_on": "male ferrets", "assay_type": "in vivo", "method": "1. Effect of subcutaneously administered GIP receptor agonist peptide in morphine-induced acute emetic model.\nTo evaluate the antiemetic effect, the GIP receptor agonist peptides other than natural human GIP are subcutaneously administered into male ferrets 24 hrs before morphine administration. Up to 60 minutes after morphine administration, the condition of the ferrets is monitored to record the frequencies and time points of abdominal contraction motions, vomiting behaviors, licking with the tongue, and fidgety behavior occurring. GIP receptor agonist peptide compounds of the present disclosure dosed at 0.3-10 nmol/kg attenuated the morphine (0.6 mg/kg, s.c.)-induced emesis in the ferrets.\nGIP receptor agonist peptides are dissolved with a vehicle (0.09 w/v % tween 80/10% DMSO/saline), respectively, to prepare test solutions. […] of the test solutions and the vehicle are subcutaneously administered to ferrets (4 in each group), respectively. At the time of each of 4 or 24 hours after administration, 0.6 mg/kg of morphine is subcutaneously administered."}, "[2]": {"assay": "physchem", "method_in_brief": "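3 mg of peptide treated with 100 μL portions of 200 mM phosphate buffer pH 7.4, sonicating/vortexing up to 1 min, with further buffer added until fully dissolved. Solubility then quantified by HPLC.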"}, "[3]": {"assay": "Pharmacokinetics in dog after IV and SC dosing", "settings": "in vivo, 3 nmol/kg", "method_in_brief": "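Dogs were dosed IV or SC at 1 mL/kg with peptide at 3 nmol/mL in 10% DMSO/0.09% Polysorbate/PBS pH 7.4. K2-EDTA plasma was sampled to 336 h, and peptide was quantified by LCMS to derive half-life.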"}},
  "data": [
    {"smiles": "CC[C@H](C)[C@H](NC(=O)[C@H](CO)NC(=O)[C@H](Cc1ccc(O)cc1)NC(=O)[C@H](CC(=O)O)NC(=O)[C@H](CO)NC(=O)[C@@H](NC(=O)[C@H](Cc1ccccc1)NC(=O)[C@@H](NC(=O)CNC(=O)[C@H](CCC(=O)O)NC(=O)C(C)(C)NC(=O)[C@H](Cc1ccc(O)cc1)NC)[C@@H](C)O)[C@@H](C)CC)C(=O)N[C@@H](C)C(=O)N[C@@H](CC(C)C)C(=O)N[C@@H](CC(=O)O)C(=O)N[C@@H](CCCNC(=N)N)C(=O)N[C@@H](CCCCNC(=O)CNC(=O)CNC(=O)CNC(=O)CNC(=O)CNC(=O)CCCCCCCCCCCCCCCCC(=O)O)C(=O)N[C@@H](C)C(=O)N[C@@H](CCC(N)=O)C(=O)NC(C)(C)C(=O)N[C@@H](CC(=O)O)C(=O)N[C@@H](Cc1ccccc1)C(=O)N[C@H](C(=O)N[C@@H](CC(N)=O)C(=O)N[C@@H](Cc1c[nH]c2ccccc12)C(=O)N[C@@H](CC(C)C)C(=O)N[C@@H](CC(C)C)C(=O)N[C@@H](C)C(=O)N[C@@H](CCC(N)=O)C(=O)N[C@@H](CO)C(=O)N1CCC[C@H]1C(=O)N[C@@H](CO)C(=O)N[C@@H](CO)C(=O)NCC(=O)N[C@@H](C)C(=O)N1CCC[C@H]1C(=O)N1CCC[C@H]1C(=O)N1CCC[C@H]1C(=O)N[C@@H](CO)C(N)=O)C(C)C", "note": "[Compound 50, Me-Y-Aib-E-G-T-F-I-S-D-Y-S-I-A-L-D-R-Km-A-Q-Aib-D-F-V-N-W-L-L-A-Q-S-P-S-S-G-A-P-P-P-S-NH2]", "values": [
      {"measurement": "% inhibition of emetic events at doses (nmol/kg) and timepoints shown in ferret morphine model", "setting": "[1]; 4 hrs, 0.3 nmol/kg s.c.", "value": "4 hrs: 27% (0.3 nmol/kg);"},
      {"measurement": "effect on morphine-induced emesis in ferrets (in words)", "setting": "[1]; morphine 0.6 mg/kg s.c., peptides dosed at 0.3-10 nmol/kg s.c.", "value": "effective in completely inhibiting the frequency of emesis"},
      {"measurement": "solubility", "setting": "[2]; pH 7.4", "value": "≥ 15", "unit": "mg/mL"},
      {"measurement": "solubility", "setting": "[2]; pH 7.4, aqueous buffer", "value": "≥ 60", "unit": "mg/mL"},
      {"measurement": "half-life", "setting": "[3]; iv", "value": 3.08, "unit": "days"},
      {"measurement": "MRT last", "setting": "[3]; sc", "value": 103, "unit": "h"}
    ]}
  ]
}
